According to ChEMBL document CHEMBL4004878, “Design, synthesis and structure-bactericidal activity relationships of novel 9-oxime ketolides and reductive epimers of acylides” (2017):
Converted amounts (≈) assume the structure as drawn.

Tests used:
Assay type in all cases: functional
[1] = test system: Streptococcus pneumoniae; test: Bacteriostatic activity against […] Streptococcus pneumoniae ATCC 49619 after 20 to 24 hrs by two-fold microbroth dilution method
[2] = test system: Streptococcus pneumoniae; test: Bactericidal activity against […] Streptococcus pneumoniae ATCC 49619 incubated for 20 to 24 hrs followed by sub-culturing for 24 hrs in absence of compound
[3] = test system: Streptococcus pneumoniae; test: Bacteriostatic activity against penicillin-susceptible Streptococcus pneumoniae PU09 after 20 to 24 hrs by two-fold microbroth dilution method
[4] = test system: Streptococcus pneumoniae; test: Bactericidal activity against penicillin-susceptible Streptococcus pneumoniae PU09 incubated for 20 to 24 hrs followed by sub-culturing for 24 hrs in absence of compound
[5] = test system: Streptococcus pneumoniae; test: Ratio of MBC to MIC for penicillin-susceptible Streptococcus pneumoniae PU09
[6] = test system: Streptococcus pyogenes; test: Bacteriostatic activity against Streptococcus pyogenes 01-968 expressing inducible ermA after 20 to 24 hrs by two-fold microbroth dilution method
[7] = test system: Streptococcus pyogenes; test: Bactericidal activity against Streptococcus pyogenes 01-968 expressing inducible ermA incubated for 20 to 24 hrs followed by sub-culturing for 24 hrs in absence of compound
[8] = test system: Streptococcus pyogenes; test: Ratio of MBC to MIC for Streptococcus pyogenes 01-968 expressing inducible ermA
[9] = test system: Haemophilus influenzae; test: Bacteriostatic activity against azithromycin-susceptible/ampicillin-resistant Haemophilus influenzae 11P307 after 20 to 24 hrs by two-fold microbroth dilution method
[10] = test system: Haemophilus influenzae; test: Bactericidal activity against azithromycin susceptible/ampicillin-resistant Haemophilus influenzae 11P307 incubated for 20 to 24 hrs followed by sub-culturing for 24 hrs in absence of compound
[11] = test system: Haemophilus influenzae; test: Ratio of MBC to MIC for azithromycin susceptible/ampicillin-resistant Haemophilus influenzae 11P307
[12] = test system: Staphylococcus aureus; test: Bacteriostatic activity against methicillin-resistant Staphylococcus aureus PU20 expressing constitutive ermC after 20 hrs by two-fold microbroth dilution method; settings: PU20, 20 h
[13] = test system: Staphylococcus aureus; test: Bactericidal activity against methicillin-resistant Staphylococcus aureus PU20 expressing constitutive ermC incubated for 20 hrs followed by sub-culturing for 24 hrs in absence of compound
[14] = test system: Staphylococcus aureus; test: Bacteriostatic activity against methicillin-resistant Staphylococcus aureus PU32 expressing inducible ermA after 20 hrs by two-fold microbroth dilution method; settings: PU32, 20 h
[15] = test system: Staphylococcus aureus; test: Bactericidal activity against methicillin-resistant Staphylococcus aureus PU32 expressing inducible ermA incubated for 20 hrs followed by sub-culturing for 24 hrs in absence of compound
[16] = test system: Staphylococcus aureus; test: Ratio of MBC to MIC against methicillin-resistant Staphylococcus aureus PU32 expressing inducible ermA
[17] = test system: Moraxella catarrhalis; test: Bacteriostatic activity against erythromycin-susceptible Moraxella catarrhalis 13L332 after 20 hrs by two-fold microbroth dilution method; settings: 13L332, 20 h
[18] = test system: Moraxella catarrhalis; test: Bactericidal activity against erythromycin-susceptible Moraxella catarrhalis 13L332 incubated for 20 hrs followed by sub-culturing for 24 hrs in absence of compound
[19] = test system: Moraxella catarrhalis; test: Ratio of MBC to MIC against erythromycin-susceptible Moraxella catarrhalis 13L332
[20] = test system: Haemophilus influenzae; test: Bacteriostatic activity against azithromycin-susceptible Haemophilus influenzae ATCC 49247 after 20 to 24 hrs by two-fold microbroth dilution method
[21] = test system: Haemophilus influenzae; test: Bactericidal activity against azithromycin-susceptible Haemophilus influenzae ATCC 49247 incubated for 20 to 24 hrs followed by sub-culturing for 24 hrs in absence of compound
[22] = test system: Haemophilus influenzae; test: Ratio of MBC to MIC against azithromycin-susceptible Haemophilus influenzae ATCC 49247
[23] = test system: Streptococcus pneumoniae; test: Ratio of MBC to MIC for […] Streptococcus pneumoniae ATCC 49619
[24] = test system: Streptococcus pyogenes; test: Bacteriostatic activity against Streptococcus pyogenes 12-207 expressing mef after 20 to 24 hrs by two-fold microbroth dilution method
[25] = test system: Streptococcus pyogenes; test: Bactericidal activity against Streptococcus pyogenes 12-207 expressing mef incubated for 20 to 24 hrs followed by sub-culturing for 24 hrs in absence of compound
[26] = test system: Streptococcus pyogenes; test: Ratio of MBC to MIC for Streptococcus pyogenes 12-207 expressing mef
[27] = test system: Staphylococcus aureus; test: Ratio of MBC to MIC for methicillin-resistant Staphylococcus aureus PU20 expressing constitutive ermC
[28] = test system: Moraxella catarrhalis; test: Bacteriostatic activity against erythromycin-susceptible Moraxella catarrhalis 11B366 after 20 hrs by two-fold microbroth dilution method; settings: 11B366, 20 h
[29] = test system: Moraxella catarrhalis; test: Bactericidal activity against erythromycin-susceptible Moraxella catarrhalis 11B366 incubated for 20 hrs followed by sub-culturing for 24 hrs in absence of compound
[30] = test system: Moraxella catarrhalis; test: Ratio of MBC to MIC against erythromycin-susceptible Moraxella catarrhalis 11B366

Row | SMILES | MIC [1] | MBC [2] | MIC [3] | MBC [4] | Ratio [5] | MIC [6] | MBC [7] | Ratio [8] | MIC [9] | MBC [10] | Ratio [11] | MIC [12] | MBC [13] | MIC [14] | MBC [15] | Ratio [16] | MIC [24] | MBC [25] | Ratio [26] | MIC [28] | also measured
1 | CC[C@H]1OC(=O)[C@@](C)(F)C(=O)[C@H](C)[C@@H](O[C@@H]2O[C@H](C)C[C@H](N(C)C)[C@H]2O)[C@](C)(OC)C[C@@H](C)/C(=N\OC/C=C/c2cncc(N)c2)[C@H](C)[C@H]2OC(=O)O[C@@]21C | 0.125 µg/mL (≈ 0.16 µM) | 0.25 µg/mL (≈ 0.321 µM) | 0.5 µg/mL (≈ 0.642 µM) | 1 µg/mL (≈ 1.28 µM) | 2 | 0.062 µg/mL (≈ 0.0796 µM) | > 0.5 µg/mL | >8 | 16 µg/mL (≈ 20.5 µM) | 32 µg/mL (≈ 41.1 µM) | 2 | > 256 µg/mL | > 256 µg/mL | 0.5 µg/mL (≈ 0.642 µM) | > 4 µg/mL | >8 | – | – | – | – | MIC [17]: 0.031 µg/mL (≈ 0.0398 µM); MBC [18]: > 0.25 µg/mL; Ratio [19]: >8; MIC [20]: 32 µg/mL (≈ 41.1 µM); MBC [21]: 32 µg/mL (≈ 41.1 µM); Ratio [22]: 1
2 | CC[C@H]1OC(=O)[C@H](C)C(=O)[C@H](C)[C@@H](O[C@@H]2O[C@H](C)C[C@H](N(C)C)[C@H]2O)[C@](C)(OC)C[C@@H](C)/C(=N\OCC#Cc2cncc3ccccc23)[C@H](C)[C@H]2OC(=O)O[C@@]21C | ≤ 0.008 µg/mL | 0.031 µg/mL (≈ 0.039 µM) | 0.25 µg/mL (≈ 0.315 µM) | 0.5 µg/mL (≈ 0.63 µM) | 2 | 0.25 µg/mL (≈ 0.315 µM) | > 2 µg/mL | >8 | 16 µg/mL (≈ 20.2 µM) | > 128 µg/mL | >8 | 32 µg/mL (≈ 40.3 µM) | 64 µg/mL (≈ 80.6 µM) | 1 µg/mL (≈ 1.26 µM) | > 8 µg/mL | >8 | 0.016 µg/mL (≈ 0.0202 µM) | > 0.125 µg/mL | >8 | 4 µg/mL (≈ 5.04 µM) | Ratio [23]: >=4; Ratio [27]: 2; MBC [29]: 4 µg/mL (≈ 5.04 µM); Ratio [30]: 1
3 | CC[C@H]1OC(=O)[C@@](C)(F)C(=O)[C@H](C)[C@@H](O[C@@H]2O[C@H](C)C[C@H](N(C)C)[C@H]2O)[C@](C)(OC)C[C@@H](C)/C(=N\OC/C=C/c2ccc3ncccc3c2)[C@H](C)[C@H]2OC(=O)O[C@@]21C | ≤ 0.008 µg/mL | 0.016 µg/mL (≈ 0.0197 µM) | 0.5 µg/mL (≈ 0.614 µM) | 1 µg/mL (≈ 1.23 µM) | 2 | 0.25 µg/mL (≈ 0.307 µM) | 1 µg/mL (≈ 1.23 µM) | 4 | 8 µg/mL (≈ 9.83 µM) | > 64 µg/mL | >8 | 32 µg/mL (≈ 39.3 µM) | 64 µg/mL (≈ 78.6 µM) | 1 µg/mL (≈ 1.23 µM) | > 8 µg/mL | >8 | 0.062 µg/mL (≈ 0.0762 µM) | > 0.5 µg/mL | >8 | 2 µg/mL (≈ 2.46 µM) | Ratio [23]: >=2; Ratio [27]: 2; MBC [29]: 2 µg/mL (≈ 2.46 µM); Ratio [30]: 1
4 | CC[C@H]1OC(=O)[C@@](C)(F)C(=O)[C@H](C)[C@@H](O[C@@H]2O[C@H](C)C[C@H](N(C)C)[C@H]2O)[C@](C)(OC)C[C@@H](C)/C(=N\OC/C=C/c2cncc(C(N)=O)c2)[C@H](C)[C@H]2OC(=O)O[C@@]21C | 0.062 µg/mL (≈ 0.0768 µM) | 0.125 µg/mL (≈ 0.155 µM) | 0.25 µg/mL (≈ 0.31 µM) | 0.5 µg/mL (≈ 0.62 µM) | 2 | 0.062 µg/mL (≈ 0.0768 µM) | > 0.5 µg/mL | >8 | 16 µg/mL (≈ 19.8 µM) | 16 µg/mL (≈ 19.8 µM) | 1 | > 256 µg/mL | > 256 µg/mL | 1 µg/mL (≈ 1.24 µM) | 8 µg/mL (≈ 9.91 µM) | 8 | – | – | – | – | MIC [17]: 0.062 µg/mL (≈ 0.0768 µM); MBC [18]: > 0.5 µg/mL; Ratio [19]: >8; MIC [20]: 16 µg/mL (≈ 19.8 µM); MBC [21]: 32 µg/mL (≈ 39.7 µM); Ratio [22]: 2
5 | CC[C@H]1OC(=O)[C@@](C)(F)C(=O)[C@H](C)[C@@H](O[C@@H]2O[C@H](C)C[C@H](N(C)C)[C@H]2O)[C@](C)(OC)C[C@@H](C)/C(=N\OCC#Cc2cncc3ccccc23)[C@H](C)[C@H]2OC(=O)O[C@@]21C | ≤ 0.008 µg/mL | 0.031 µg/mL (≈ 0.0382 µM) | 0.25 µg/mL (≈ 0.308 µM) | 1 µg/mL (≈ 1.23 µM) | 4 | 0.062 µg/mL (≈ 0.0764 µM) | > 0.5 µg/mL | >8 | 8 µg/mL (≈ 9.85 µM) | > 64 µg/mL | >8 | 32 µg/mL (≈ 39.4 µM) | 128 µg/mL (≈ 158 µM) | 1 µg/mL (≈ 1.23 µM) | > 8 µg/mL | >8 | 0.031 µg/mL (≈ 0.0382 µM) | > 0.25 µg/mL | >8 | 1 µg/mL (≈ 1.23 µM) | Ratio [23]: >=4; Ratio [27]: 4; MBC [29]: 2 µg/mL (≈ 2.46 µM); Ratio [30]: 2
6 | CC[C@H]1OC(=O)[C@H](C)[C@@H](O[C@H]2C[C@@](C)(OC)[C@@H](O)[C@H](C)O2)[C@H](C)[C@@H](O[C@@H]2O[C@H](C)C[C@H](N(C)C)[C@H]2O)[C@](C)(OC)C[C@@H](C)C(=O)[C@H](C)[C@@H](O)[C@]1(C)O [CLARITHROMYCIN] | 0.031 to 0.062 µg/mL (≈ 0.0414 to 0.0829 µM) | 0.062 to 0.125 µg/mL (≈ 0.0829 to 0.167 µM) | 4 µg/mL (≈ 5.35 µM) | 8 µg/mL (≈ 10.7 µM) | 2 | 1 µg/mL (≈ 1.34 µM) | > 8 µg/mL | >8 | 1 to 8 µg/mL (≈ 1.34 to 10.7 µM) | 8 to 16 µg/mL (≈ 10.7 to 21.4 µM) | 2 - 8 | > 256 µg/mL | > 256 µg/mL | 8 to 32 µg/mL (≈ 10.7 to 42.8 µM) | 16 to 256 µg/mL (≈ 21.4 to 342 µM) | >2 - 8 | 16 µg/mL (≈ 21.4 µM) | 32 µg/mL (≈ 42.8 µM) | 2 | 0.125 µg/mL (≈ 0.167 µM) | MBC [29]: 0.25 µg/mL (≈ 0.334 µM); Ratio [30]: 2; MIC [17]: 0.031 µg/mL (≈ 0.0414 µM); MBC [18]: 0.125 µg/mL (≈ 0.167 µM); Ratio [19]: 4; MIC [20]: 16 µg/mL (≈ 21.4 µM); MBC [21]: 32 µg/mL (≈ 42.8 µM); Ratio [22]: 2
